Consider six compounds from DBAASP.

Test systems include Proteus mirabilis; Streptococcus pyogenes; Pseudomonas aeruginosa.
What all share (test): ≥ marks a high value that may be exact or a test limit, other limits are often not marked, values filed in µg/mL are converted to µM
For experiment [1], the system named is Bacillus subtilis ATCC 62037.
Experiment [2] deals with Candida albicans ATCC 10231.
Experiment [3] concerns Cryptococcus neoformans ATCC 34881.
The subject of experiment [4] is Escherichia coli ATCC 27325.
For experiment [5], the system named is Pseudomonas putida ATCC 17426.
In experiment [6] the test system is Saccharomyces cerevisiae ATCC 44774.
For experiment [7], the system named is Salmonella enterica subsp. enterica serovar Enteritidis ATCC 13076.
The test system of experiment [8] is Staphylococcus aureus ATCC 15752.
The test system of experiment [9] is Streptococcus mutans ATCC 25175.
For experiment [10], the system named is Bacillus subtilis ATCC 6633.
The test system of experiment [11] is Candida albicans ATCC 90112.
The test system of experiment [12] is Escherichia coli ATCC 25922.
Experiment [13] relates to Micrococcus luteus ATCC 10240.
For experiment [14], the system named is Pseudomonas aeruginosa ATCC 27853.
Experiment [15] has as its system Staphylococcus aureus ATCC 25923.
Experiment [16] concerns Staphylococcus epidermidis.
In experiment [17] the test system is Stenotrophomonas maltophilia ATCC 13637.
For experiment [18], the system named is Acinetobacter baumannii ATCC 17978.
For experiment [19], the system named is Escherichia coli KCTC 1682.
Experiment [20] concerns Escherichia coli NCTC 12923.
In experiment [21] the test system is Klebsiella pneumoniae NCTC 13368.
In experiment [22] the test system is Pseudomonas aeruginosa CCARM 2095.
Experiment [23] relates to Pseudomonas aeruginosa KCTC 1637.
Experiment [24] has as its system Pseudomonas aeruginosa NCTC 13437.
The subject of experiment [25] is Pseudomonas aeruginosa PAO1.
In experiment [26] the test system is Salmonella typhimurium KCTC 1926.
Experiment [27] concerns Staphylococcus aureus ATCC 9144.
The test system of experiment [28] is Staphylococcus aureus CCARM 3001.
The test system of experiment [29] is Staphylococcus aureus CCARM 3543.
The subject of experiment [30] is Staphylococcus aureus KCTC 1621.
Experiment [31] deals with Staphylococcus aureus USA 300.
Experiment [32] has as its system Staphylococcus epidermidis KCTC 1917.
Experiment [33] concerns Candida albicans ATCC 36232.
In experiment [34] the test system is Micrococcus luteus ATCC 9341.
Experiment [35] has as its system Staphylococcus aureus ATCC 6538.
Experiment [36] has as its system Klebsiella pneumoniae ATCC 10031.
Experiment [37] has as its system Salmonella enterica subsp. enterica serovar Typhimurium ATCC 14028.
The subject of experiment [38] is Shigella dysenteriae ATCC 9752.
Experiment [39] deals with Staphylococcus aureus ATCC 6538P.
Experiment [40] relates to Staphylococcus aureus TK784.
Experiment [41] relates to Staphylococcus epidermidis ATCC 12228.
Experiment [42] relates to Staphylococcus aureus KO-4.
The test system of experiment [43] is Trichophyton mentagrophytes IFO 5466.
Experiment [44] concerns Trypanosoma brucei brucei GUT Tat3.1.

In brackets after ≈: the same amount, converted by molar mass. Several values for one entry are separate records, joined by “and”; a condition that tells them apart may be missing. Identical values can stand only once.

Usually MIC stands for the lowest concentration that inhibits growth of the organism. A higher MIC goes with a less susceptible organism. Turning to `CC(C)[C@H](NC(=O)[C@H](CCCCN)NC(=O)CNC(=O)CNC(=O)[C@H](CCC(N)=O)NC(=O)[C@H](CCCCN)NC(=O)CNC(=O)[C@H](CCCN=C(N)N)NC(=O)CNC(=O)[C@H](C)N)C(=O)N[C@@H](CCCN=C(N)N)C(=O)N[C@@H](C)C(=O)N[C@@H](CCCCN)C(=O)N[C@@H](C)C(=O)N[C@@H](CCCCN)C(=O)N[C@H](C(=O)N[C@@H](CCCN=C(N)N)C(=O)N[C@@H](CO)C(=O)N[C@@H](CO)C(=O)O)[C@@H](C)O` [AGRGKQGGKVRAKAKTRSS], the minimum inhibitory concentration (MIC) in [1] was found to be 4.12 µM (≈ 8 µg/mL); in experiment [2], 8.23 µM (≈ 16 µg/mL); in experiment [3] it was 4.12 µM (≈ 8 µg/mL); in experiment [4] it was 2.06 µM (≈ 4 µg/mL); in experiment [5] it was 2.06 µM (≈ 4 µg/mL); in experiment [6] it was 4.12 µM (≈ 8 µg/mL). Also, the MIC in experiment [7], in experiment [8] and in [9] was 8.23 µM (≈ 16 µg/mL) each time.
As to `CC[C@H](C)[C@H](NC(=O)CNC(=O)[C@H](CCSC)NC(=O)[C@@H](NC(=O)[C@H](CC(=O)O)NC(=O)[C@@H](N)Cc1ccccc1)C(C)C)C(=O)N[C@H](C(=O)N[C@@H](CCCCN)C(=O)N[C@@H](CCCCN)C(=O)N[C@H](C(=O)N[C@@H](C)C(=O)N[C@@H](CO)C(=O)N[C@@H](C)C(=O)N[C@@H](CC(C)C)C(N)=O)[C@@H](C)CC)[C@@H](C)CC` [FDVMGIIKKIASAL], the MIC in [10] was 30 µM (≈ 45.1 µg/mL); in [11] it was 7.5 µM (≈ 11.3 µg/mL); in experiment [12] it was 30 µM (≈ 45.1 µg/mL); in [13] it was 30 µM (≈ 45.1 µg/mL); against Proteus mirabilis it was at least 60 µM; in experiment [14], over 30 µM. The MIC (in [15]; in [16]; in [17]; against Streptococcus pyogenes) was 30 µM (≈ 45.1 µg/mL) each time.
For the compound `CC[C@H](C)[C@H](N)C(=O)N[C@@H](CC(C)C)C(=O)NCC(=O)N[C@@H](CCCCN)C(=O)N[C@H](C(=O)N[C@@H](Cc1c[nH]c2ccccc12)C(=O)N[C@@H](CCCCN)C(=O)N1CCC[C@H]1C(=O)N[C@H](C(=O)N[C@@H](CCCCN)C(=O)N[C@@H](CCCCN)C(=O)N[C@@H](CC(C)C)C(=O)N[C@@H](Cc1ccccc1)C(N)=O)[C@@H](C)CC)[C@@H](C)CC` [ILGKIWKPIKKLF], the MIC in experiment [18] is 5.05 µM (≈ 8 µg/mL); in experiment [19], 2 µM (≈ 3.17 µg/mL); in experiment [20], 10.1 µM (≈ 16 µg/mL); in experiment [21], at least 40.4 µM; in experiment [22], 1 µM (≈ 1.58 µg/mL); in experiment [23], 2 µM (≈ 3.17 µg/mL). The MIC in experiment [24] was at least 40.4 µM; in experiment [25], over 80.8 µM; in experiment [26] it was 1 µM (≈ 1.58 µg/mL); in experiment [27], 5.05 µM (≈ 8 µg/mL); in experiment [28], 1 µM (≈ 1.58 µg/mL); in experiment [29], 0.5 µM (≈ 0.792 µg/mL). Besides, the results for the minimum inhibitory concentration (MIC) in [30], in experiment [31] and in [32] were 2 µM (≈ 3.17 µg/mL), at least 40.4 µM and 1 µM (≈ 1.58 µg/mL), respectively.
For the compound `CC(C)[C@H](NC(=O)[C@H](CCCCN)NC(=O)[C@H](Cc1ccccc1)NC(=O)[C@@H](NC(=O)[C@@H](NC(=O)[C@H](CCCCN)NC(=O)[C@H](CCCCN)NC(=O)[C@@H](N)CCCCN)C(C)C)C(C)C)C(=O)N[C@@H](CCCCN)C(=O)N[C@@H](Cc1ccccc1)C(=O)N[C@@H](CCCCN)C(=O)N[C@@H](CCCCN)C(N)=O` [KKKVVFKVKFKK], the minimal inhibitory concentration (MIC) was 4.15 µM and 2.08 µM in experiment [33]; 2.08 µM (≈ 3.13 µg/mL) in [34]; 2.08 µM (≈ 3.13 µg/mL) in experiment [35].
As for `CC(C)C[C@H](NC(=O)[C@H](Cc1c[nH]c2ccccc12)NC(=O)[C@H](CCCCN)NC(=O)[C@H](CCCCN)NC(=O)[C@H](CC(C)C)NC(=O)[C@H](Cc1c[nH]c2ccccc12)NC(=O)[C@H](CCCCN)NC(=O)[C@H](CCCCN)NC(=O)[C@@H](N)CC(C)C)C(=O)N[C@@H](CCCCN)C(=O)N[C@@H](CCCCN)C(N)=O` [LKKWLKKWLKK], the MIC in experiment [10] is 13.3 µM (≈ 20 µg/mL); in experiment [12] it was 13.3 µM (≈ 20 µg/mL); in experiment [36], at least 53.4 µM; in [13], 26.7 µM (≈ 40 µg/mL); in experiment [14] it was 26.7 µM (≈ 40 µg/mL); in experiment [37] it was over 53.4 µM. The MIC was at least 53.4 µM in [38], 6.67 µM (≈ 9.99 µg/mL) in experiment [39], at least 53.4 µM in experiment [40] and 26.7 µM (≈ 40 µg/mL) in [41].
In the case of `CC[C@H](C)[C@H](NC(=O)[C@H](CCCN=C(N)N)NC(=O)[C@H](CC(C)C)NC(=O)[C@H](Cc1ccc(O)cc1)NC(=O)[C@H](CC(C)C)NC(=O)[C@@H](N)CCCN=C(N)N)C(=O)NCC(=O)N[C@@H](CCCN=C(N)N)C(=O)N[C@@H](CCCN=C(N)N)C(N)=O` [RLYLRIGRR], the MIC in the experiment on Pseudomonas aeruginosa is 333 µM (≈ 400 µg/mL); in experiment [42] it was at least 499 µM; in [43], 20.8 µM (≈ 25 µg/mL); in experiment [44] it was at least 205 µM.
